Measurements taken from patent US9624239B2, “Protein kinase inhibitors” (Pharmascience Inc., priority 2011, dated 2017).

Columns and labels:
[1] = biological target: T1, histidine tagged recombinant human full-length Bruton Agammaglobulinemia Tyrosine Kinase (Btk) (Homo sapiens, UniProt Q06187); experiment: Btk kinase inhibition assay (fluorescence polarization, KinEASE FP Fluorescein Green); format: biochemical; conditions: 10 μM ATP, 250 μM substrate, 60 minutes, room temperature; Ki from IC50 by Cheng-Prusoff; read-out: ki50 (nM), Inhibition of Btk
T1 construct: recombinant human full-length Bruton Agammaglobulinemia Tyrosine Kinase (Btk); histidine tag
T1 sequence (Q06187 whole entry): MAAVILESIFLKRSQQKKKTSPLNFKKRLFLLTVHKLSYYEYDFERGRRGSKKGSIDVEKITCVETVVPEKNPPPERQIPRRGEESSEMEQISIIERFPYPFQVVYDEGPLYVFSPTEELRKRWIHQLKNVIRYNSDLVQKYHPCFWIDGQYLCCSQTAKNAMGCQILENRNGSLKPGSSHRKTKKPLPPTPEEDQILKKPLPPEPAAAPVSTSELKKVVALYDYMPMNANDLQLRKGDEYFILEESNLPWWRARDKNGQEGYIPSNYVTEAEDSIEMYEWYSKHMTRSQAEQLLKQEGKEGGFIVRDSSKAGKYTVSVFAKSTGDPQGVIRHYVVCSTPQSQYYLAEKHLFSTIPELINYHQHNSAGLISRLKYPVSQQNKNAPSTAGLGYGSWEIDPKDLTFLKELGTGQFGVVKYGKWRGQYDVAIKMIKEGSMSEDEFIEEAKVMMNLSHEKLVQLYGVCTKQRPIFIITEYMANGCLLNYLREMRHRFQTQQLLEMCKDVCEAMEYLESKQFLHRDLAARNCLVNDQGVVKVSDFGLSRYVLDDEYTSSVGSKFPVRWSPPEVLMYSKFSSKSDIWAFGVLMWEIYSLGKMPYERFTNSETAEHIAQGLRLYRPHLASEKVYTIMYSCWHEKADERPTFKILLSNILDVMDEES
Description: (§1) Kinase Binding Btk and Lck Kinase Inhibition Assay
(§2) Fluorescence polarization-based kinase assays were performed in 384 well-plate format using histidine tagged recombinant human full-length Bruton Agammaglobulinemia Tyrosine Kinase (Btk) or histidine tagged recombinant Human Lymphocyte-Specific Protein Tyrosine Kinase (Lck) and a modified protocol of the KinEASE™ FP Fluorescein Green Assay supplied from Millipore. Kinase reaction were performed at room temperature for 60 minutes in presence of 250 μM substrate, 10 μM ATP and variable test article concentrations. The reaction was stopped with EDTA/kinease detection reagents and the polarization measured on a Tecan 500 instrument. From the dose-response curve obtained, the IC50 was calculated using Graph Pad Prisms® using a non-linear fit curve. The Km for ATP on each enzyme was experimentally determined and the Ki values calculated using the Cheng-Prusoff equation (see: Cheng Y, Prusoff W H. (1973) Relationship between the inhibition constant (K1) and the concentration of inhibitor which causes 50 percent inhibition (I50) of an enzymatic reaction”. Biochem Pharmacol 22 (23): 3099-108).
(§3) ki values are reported in Tables 2 and 3: • a—Less than 100 nM; b—less than 1000 nM; c—more than 1000 nM

[2] = tested on: mouse splenocytes; experiment: Splenic cell proliferation assay (anti-IgM stimulated B cell proliferation, Cell Titer-Glo); format: cell-based; conditions: Splenocyte; CD1 mouse splenocytes, 1 h pre-treatment, 2.5 ug/ml anti-IgM F(ab')2 for 72 h; read-out: EC50 (nM), Inhibition of splenic cell proliferation
Description: Splenic Cell Proliferation Assay
Splenocytes were obtained from 6 week old male CD1 mice (Charles River Laboratories Inc.). Mouse spleens were manually disrupted in PBS and filtered using a 70 μm cell strainer followed by ammonium chloride red blood cell lysis. Cells were washed, resuspended in Splenocyte Medium (HyClone RPMI supplemented with 10% heat-inactivated FBS, 0.5× non-essential amino acids, 10 mM HEPES, 50 uM beta mercaptoethanol) and incubated at 37° C., 5% CO2 for 2 h to remove adherent cells. Suspension cells were seeded in 96 well plates at 50,000 cells per well and incubated at 37° C., 5% CO2 for 1 h. Splenocytes were pre-treated in triplicate with 10,000 nM curves of Formula 1 compounds for 1 h, followed by stimulation of B cell proliferation with 2.5 ug/ml anti-IgM F(ab′)2 (Jackson ImmunoResearch) for 72 h. Cell proliferation was measured by Cell Titer-Glo Luminescent Assay (Promega). EC50 values (50% proliferation in the presence of compound as compared to vehicle treated controls) were calculated from dose response compound curves using GraphPad Prism Software.
EC50 values are reported in Table 4: • a—Less than 100 nM; b—less than 1000 nM; c—more than 1000 nM

[3] = biological target: T2, histidine tagged recombinant Human Lymphocyte-Specific Protein Tyrosine Kinase (Lck) (Homo sapiens, UniProt P06239); experiment: Lck kinase inhibition assay (fluorescence polarization, KinEASE FP Fluorescein Green); format: biochemical; conditions: 10 μM ATP, 250 μM substrate, 60 minutes, room temperature; Ki from IC50 by Cheng-Prusoff
T2 construct: histidine tag
T2 sequence (P06239 whole entry): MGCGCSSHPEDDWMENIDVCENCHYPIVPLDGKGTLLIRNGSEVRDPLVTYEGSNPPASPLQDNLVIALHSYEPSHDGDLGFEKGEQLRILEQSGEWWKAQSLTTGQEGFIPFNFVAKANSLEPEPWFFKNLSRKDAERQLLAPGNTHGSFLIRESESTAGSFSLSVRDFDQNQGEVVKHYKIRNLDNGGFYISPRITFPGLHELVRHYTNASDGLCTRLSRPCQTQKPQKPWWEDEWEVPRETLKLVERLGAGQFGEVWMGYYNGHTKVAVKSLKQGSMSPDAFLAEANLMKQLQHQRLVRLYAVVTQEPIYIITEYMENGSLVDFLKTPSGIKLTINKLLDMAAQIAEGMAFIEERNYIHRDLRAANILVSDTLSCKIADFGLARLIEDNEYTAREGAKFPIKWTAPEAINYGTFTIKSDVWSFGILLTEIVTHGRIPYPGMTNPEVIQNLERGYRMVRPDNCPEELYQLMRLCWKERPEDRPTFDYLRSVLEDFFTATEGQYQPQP
Description: as §1, §2, §3

SMILES | Ki [1] [nM] | Ki [3] [nM] | EC50 [2] [nM]
CC1OCc2c1c1ncnc(N)c1n2-c1ccc(Oc2ccccc2)cc1 (stereo not drawn) [Compound 20] | < 100 | < 100 | 100 to 1000
Nc1ncnc2c3c(n(-c4ccc(Oc5ccccc5)cc4)c12)COC3 [Compound 21] | < 1000 | < 100 | > 1000
COc1cc(-n2c3c(c4ncnc(N)c42)CCC3)ccc1Oc1ccccc1 [Compound 23] | < 1000 | < 100 | > 1000
CCC1OCc2c1c1ncnc(N)c1n2-c1ccc(Oc2ccccc2)cc1 (stereo not drawn) [Compound 24] | < 1000 | < 100 | 100 to 1000
COc1cccc(Oc2ccc(-n3c4c(c5ncnc(N)c53)C(C)OC4)cc2)c1 (stereo not drawn) [Compound 25] | < 100 | < 100 | 100 to 1000
Nc1ncnc2c3c(n(-c4ccc(Oc5ccccc5)cc4)c12)COC3CCCOCc1ccccc1 (stereo not drawn) [Compound 26] | > 1000 | < 1000 | > 1000
Nc1ncnc2c3c(n(-c4ccc(Oc5ccccc5)cc4)c12)COC3CCCO (stereo not drawn) [Compound 27] | < 1000 | < 100 | > 1000
COc1ccccc1Oc1ccc(-n2c3c(c4ncnc(N)c42)C(C)OC3)cc1 (stereo not drawn) [Compound 28] | < 1000 | < 1000 | > 1000
CC1OCc2c1c1ncnc(N)c1n2-c1ccc(Oc2cccc(C(F)(F)F)c2)cc1 (stereo not drawn) [Compound 29] | < 1000 | < 1000 | 100 to 1000
Nc1ncnc2c3c(n(-c4ccc(Oc5ccccc5)cc4)c12)COC3c1ccccc1 (stereo not drawn) [Compound 30] | < 100 | < 1000 | > 1000
CC1OCc2c1c1ncnc(N)c1n2-c1ccc(Oc2cccc(Cl)c2)cc1 (stereo not drawn) [Compound 31] | < 1000 | < 100 | 100 to 1000
CC1OCc2c1c1ncnc(N)c1n2-c1ccc(Oc2ccccc2C(F)(F)F)cc1 (stereo not drawn) [Compound 32] | < 1000 | < 1000 | 100 to 1000
CC1OCc2c1c1ncnc(N)c1n2-c1ccc(Oc2ccccc2Cl)cc1 (stereo not drawn) [Compound 33] | < 1000 | < 100 | 100 to 1000
CC1OCc2c1c1ncnc(N)c1n2-c1ccc(Oc2ccccc2F)cc1 (stereo not drawn) [Compound 34] | < 100 | < 100 | > 1000
CC1OCc2c1c1ncnc(N)c1n2-c1ccc(Oc2cccc(F)c2)cc1 (stereo not drawn) [Compound 35] | < 1000 | < 1000 | > 1000
Nc1ncnc2c3c(n(-c4ccc(Oc5ccccc5)cc4)c12)COC3CCCOc1ccccc1 (stereo not drawn) [Compound 36] | > 1000 | < 1000 | > 1000
CC1OCc2c1c1ncnc(N)c1n2-c1ccc(Oc2cccc(C#N)c2)cc1 (stereo not drawn) [Compound 37] | > 1000 | > 1000 | > 1000
CC1OCc2c1c1ncnc(N)c1n2-c1ccc(Oc2cccc(C(N)=O)c2)cc1 (stereo not drawn) [Compound 38] | > 1000 | > 1000 | > 1000
CC1OCc2c1c1ncnc(N)c1n2-c1ccc(Oc2ccccc2)c(Cl)c1 (stereo not drawn) [Compound 39] | < 1000 | < 100 | > 1000
CC1OCc2c1c1ncnc(N)c1n2-c1ccc(Oc2ccccc2)c(F)c1 (stereo not drawn) [Compound 40] | < 1000 | < 100 | 100 to 1000
CCOc1cccc(Oc2ccc(-n3c4c(c5ncnc(N)c53)C(C)OC4)cc2)c1 (stereo not drawn) [Compound 41] | < 100 | < 100 | 100 to 1000
CC1OCc2c1c1ncnc(N)c1n2-c1ccc(Oc2ccc(F)cc2)cc1 (stereo not drawn) [Compound 42] | > 1000 | < 1000 | > 1000
CC1OCc2c1c1ncnc(N)c1n2-c1ccc(Oc2cccc(OCc3ccccc3)c2)cc1 (stereo not drawn) [Compound 43] | < 100 | < 100 | 100 to 1000

Second part, led by results:

Ki [1] [nM] | Ki [3] [nM] | SMILES | EC50 [2] [nM]
< 100 | < 100 | CC1OCc2c1c1ncnc(N)c1n2-c1ccc(Oc2cccc(O)c2)cc1 (stereo not drawn) [Compound 44] | > 1000
> 1000 | < 1000 | CC1OCc2c1c1ncnc(N)c1n2-c1ccc(Oc2cccc([N+](=O)[O-])c2)cc1 (stereo not drawn) [Compound 45] | > 1000
< 100 | < 100 | CC1OCc2c1c1ncnc(N)c1n2-c1ccc(Oc2cccc(OCC#N)c2)cc1 (stereo not drawn) [Compound 46] | 100 to 1000
< 100 | < 100 | CC1OCc2c1c1ncnc(N)c1n2-c1ccc(Oc2cccc(OCc3ccc(F)cc3)c2)cc1 (stereo not drawn) [Compound 49] | 100 to 1000
< 100 | < 100 | CC1OCc2c1c1ncnc(N)c1n2-c1ccc(Oc2cccc(OCCOc3ccc(Cl)cc3)c2)cc1 (stereo not drawn) [Compound 50] | > 1000
< 100 | < 100 | CC1OCc2c1c1ncnc(N)c1n2-c1ccc(Oc2cccc(OCc3cccnc3)c2)cc1 (stereo not drawn) [Compound 53] | 100 to 1000
< 100 | < 100 | CC1OCc2c1c1ncnc(N)c1n2-c1ccc(Oc2cccc(OCc3ccncc3)c2)cc1 (stereo not drawn) [Compound 54] | > 1000
< 100 | < 100 | CC1OCc2c1c1ncnc(N)c1n2-c1ccc(Oc2cccc(OCC3CCCCC3)c2)cc1 (stereo not drawn) [Compound 56] | > 1000
< 100 | < 100 | CC1OCc2c1c1ncnc(N)c1n2-c1ccc(Oc2cccc(OCc3ccc(C(F)(F)F)cc3)c2)cc1 (stereo not drawn) [Compound 57] | > 1000
< 1000 | < 100 | CC1OCc2c1c1ncnc(N)c1n2-c1ccc(Oc2ccccc2C#N)cc1 (stereo not drawn) [Compound 58] | 100 to 1000
< 1000 | < 100 | COc1cc(F)cc(Oc2ccc(-n3c4c(c5ncnc(N)c53)C(C)OC4)cc2)c1 (stereo not drawn) [Compound 59] | 100 to 1000
> 1000 | < 1000 | CC1OCc2c1c1ncnc(N)c1n2-c1ccc(Oc2ccccc2C(N)=O)cc1 (stereo not drawn) [Compound 60] | > 1000
> 1000 | < 100 | Nc1ncnc2c3c(n(-c4ccc(Oc5cccc(O)c5)cc4)c12)CCC3 [Compound 61] | > 1000
